Experimental data taken from the supplement of paper PMC11061612.

Assays:
COLO-792 (Melanoma) = test: combination Emax (second highest fraction inhibited in the dose matrix, 72 h); higher = more inhibition; extreme values may be limits of the assay
Procedure, shortened: (§1)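 Cell lines in DMEM/F12 or RPMI with 10% FBS were plated in 1536-well plates, held 24 hours at 37°C, 5% CO2, then given two-drug dose matrices for 72 hours (DMSO typically 0.2%). Viability was read by CellTiter-Glo 2.0 luminescence and scaled as inhibition from 0 (vehicle wells) to 1 (blank wells). Combination Emax is the second-highest inhibition in the matrix; Bliss excess is observed combination effect minus expected EA + EB − EA·EB, EA and EB being single-agent effects.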

[1] = test system: CA46 (Burkitt's Lymphoma); test: as above
Procedure, shortened: as §1

NB13 (Neuroblastoma) = test: as above
Procedure, shortened: as §1

[2] = test system: huH-1 (Hepatocellular Carcinoma); test: as above
Procedure, shortened: as §1

A204 (Rhabdomyosarcoma) = test: as above
Procedure, shortened: as §1

[3] = test system: NCI-H441 (Lung Adenocarcinoma); test: as above
Procedure, shortened: as §1

HCC70 (Breast Carcinoma) = test: as above
Procedure, shortened: as §1

[4] = test system: SW620 (Colorectal Carcinoma); test: as above
Procedure, shortened: as §1

[5] = test system: 22RV1 (Prostate Carcinoma); test: as above
Procedure, shortened: as §1

IM-9 (Non-Cancerous) = test: as above
Procedure, shortened: as §1

[6] = test system: JVM-2 (B-Cell Non-Hodgkin's Lymphoma); test: as above
Procedure, shortened: as §1

A101D (Melanoma) = test: as above
Procedure, shortened: as §1

[7] = test system: HT55 (Colorectal Carcinoma); test: as above
Procedure, shortened: as §1

[8] = test system: NCI-H1651 (Lung Adenocarcinoma); test: as above
Procedure, shortened: as §1

[9] = test system: CGTH-W-1 (Thyroid Gland Carcinoma); test: as above
Procedure, shortened: as §1

[10] = test system: A2780 (Ovarian Carcinoma); test: Bliss excess, mean over the matrix (fraction); higher = more synergy
Procedure, shortened: as §1

[11] = test system: KYSE-220 (Esophageal Squamous Cell Carcinoma); test: as above
Procedure, shortened: as §1

[12] = test system: LS-411N (Colorectal Carcinoma); test: as above
Procedure, shortened: as §1

[13] = test system: KYSE-140 (Esophageal Squamous Cell Carcinoma); test: as above
Procedure, shortened: as §1

AU565 (Breast Carcinoma) = test: as above
Procedure, shortened: as §1
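Wherever Bliss excess, mean over the matrix is given: after 72 h of two-drug dosing.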

Row | SMILES | combination Emax (COLO-792 (Melanoma)) | combination Emax [1] | combination Emax (NB13 (Neuroblastoma)) | combination Emax [2] | combination Emax (A204 (Rhabdomyosarcoma)) | combination Emax [3] | combination Emax (HCC70 (Breast Carcinoma)) | combination Emax [4] | combination Emax [5] | combination Emax (IM-9 (Non-Cancerous)) | combination Emax [6] | combination Emax (A101D (Melanoma)) | combination Emax [7] | combination Emax [8] | combination Emax [9] | Bliss excess [10] | Bliss excess [11] | Bliss excess [12] | Bliss excess [13] | Bliss excess (AU565 (Breast Carcinoma))
1 | COc1nnc2ccc(N3CCC(c4ccc(OCCN5CCN(C)C(=O)[C@H]5C)cc4)CC3)nn12 [AZD5153] + C[C@@H]1COCCN1C2=NC(=NC(=C2)C3(CC3)[S@](=N)(=O)C)C4=C5C=CNC5=NC=C4 [AZD6738] (first compound max 1 µM, 7x7, partner max 10 µM) | 0.72 | 0.754 | 0.917 | 0.69 | 0.573 | 0.562 | 0.659 | 0.784 | 0.645 | 0.963 | 0.825 | 0.805 | 0.748 | 0.767 | 0.448 | -0.0058 | 0.0019 | 0.0754 | -0.0968 | 0.009
2 | NC1(C(=O)N[C@@H](CCO)c2ccc(Cl)cc2)CCN(c2ncnc3[nH]ccc23)CC1 [Capivasertib] + C[C@@H]1COCCN1C2=NC(=NC(=C2)C3(CC3)[S@](=N)(=O)C)C4=C5C=CNC5=NC=C4 [AZD6738] (first compound max 10 µM, 7x7, partner max 10 µM) | 0.549 | 0.474 | 0.896 | 0.692 | 0.467 | 0.448 | 0.817 | 0.545 | 0.76 | 0.979 | 0.864 | 0.803 | 0.545 | 0.581 | 0.398 | -0.0336 | -0.0523 | -0.0605 | -0.0846 | -0.0126
3 | NC1(C(=O)N[C@@H](CCO)c2ccc(Cl)cc2)CCN(c2ncnc3[nH]ccc23)CC1 [Capivasertib] + CC(=O)c1c(C)c2cnc(Nc3ccc(N4CCNCC4)cn3)nc2n(C2CCCC2)c1=O [Palbociclib] (first compound max 10 µM, 7x7, partner max 10 µM) | 0.465 | 0.411 | 0.392 | 0.374 | 0.517 | 0.348 | 0.657 | 0.473 | 0.639 | 0.706 | 0.823 | 0.581 | 0.607 | 0.0542 | 0.349 | -0.0266 | 0.0407 | -0.0119 | -0.0427 | 0.0521
4 | Cc1c2c(nn1C)CSCc1cc(n(C)n1)CSc1cc(c3ccccc3c1)OCCCc1c(C(=O)O)n(C)c3c-2c(Cl)ccc13 [AZD5991] + C[C@@H](Nc1cc(F)cc(F)c1)c1cc(C(=O)N(C)C)cc2c(=O)cc(N3CCOCC3)oc12 [AZD8186] (first compound max 1 µM, 7x7, partner max 3 µM) | 0.999 | 0.167 | 0.331 | 0.192 | 0.785 | 0.34 | 1 | 0.206 | 0.48 | 0.671 | 0.712 | 0.952 | 0.272 | 0.155 | 0.319 | -0.0049 | -0.006 | 0.0064 | -0.0439 | 0.0418
5 | CC(=O)Nc1cccc(-n2c(=O)n(C3CC3)c(=O)c3c(Nc4ccc(I)cc4F)n(C)c(=O)c(C)c32)c1 [Trametinib] + Cc1nc(-c2cn3c(n2)-c2ccc(-c4cnn(C(C)(C)C(N)=O)c4)cc2OCC3)n(C(C)C)n1 [Taselisib] (first compound max 1 µM, 7x7, partner max 10 µM) | 1 | 0.434 | 0.428 | 0.688 | 0.816 | 0.639 | 1 | 0.77 | 0.704 | 0.941 | 0.746 | 0.923 | 0.859 | 0.285 | 0.99 | 0.0164 | 0.152 | 0.125 | -0.0046 | 0.102
6 | CC(=O)c1c(C)c2cnc(Nc3ccc(N4CCNCC4)cn3)nc2n(C2CCCC2)c1=O [Palbociclib] + Cn1cnc2c(F)c(Nc3ccc(Br)cc3Cl)c(C(=O)NOCCO)cc21 [Selumetinib] (first compound max 10 µM, 7x7, partner max 10 µM) | 0.5 | 0.345 | 0.333 | 0.167 | 0.399 | 0.327 | 0.269 | 0.72 | 0.463 | 0.906 | 0.774 | 0.588 | 0.755 | 0.0478 | 0.14 | 0.0327 | 0.0235 | 0.0131 | -0.0387 | 0.0052
7 | Cc1c2c(nn1C)CSCc1cc(n(C)n1)CSc1cc(c3ccccc3c1)OCCCc1c(C(=O)O)n(C)c3c-2c(Cl)ccc13 [AZD5991] + Cn1cnc2c(F)c(Nc3ccc(Br)cc3Cl)c(C(=O)NOCCO)cc21 [Selumetinib] (first compound max 1 µM, 7x7, partner max 3 µM) | 1 | 0.0912 | 0.263 | 0.152 | 0.459 | 0.405 | 0.994 | 0.643 | 0.498 | 0.848 | 0.646 | 1 | 0.692 | 0.218 | 0.181 | -0.0361 | 0.0119 | 0.0493 | -0.015 | 0.0145
8 | NC1(C(=O)N[C@@H](CCO)c2ccc(Cl)cc2)CCN(c2ncnc3[nH]ccc23)CC1 [Capivasertib] + COc1nnc2ccc(N3CCC(c4ccc(OCCN5CCN(C)C(=O)[C@H]5C)cc4)CC3)nn12 [AZD5153] (first compound max 10 µM, 7x7, partner max 1 µM) | 0.94 | 0.644 | 0.775 | 0.358 | 0.517 | 0.379 | 0.876 | 0.427 | 0.649 | 0.811 | 0.79 | 0.66 | 0.572 | 0.0984 | 0.408 | -0.0148 | -0.0248 | 0.11 | 0.0298 | 0.0693
9 | CC1(C)CCC(CN2CCN(c3ccc(C(=O)NS(=O)(=O)c4ccc(NCC5CCOCC5)c([N+](=O)[O-])c4)c(Oc4cnc5[nH]ccc5c4)c3)CC2)=C(c2ccc(Cl)cc2)C1 [Venetoclax] + C[C@@H](Nc1cc(F)cc(F)c1)c1cc(C(=O)N(C)C)cc2c(=O)cc(N3CCOCC3)oc12 [AZD8186] (first compound max 1 µM, 7x7, partner max 3 µM) | 0.328 | 0.533 | 0.253 | 0.152 | 0.327 | 0.184 | 0.532 | 0.0907 | 0.322 | 0.573 | 0.661 | 0.387 | 0.14 | 0.128 | 0.116 | -0.0138 | -0.0332 | 0.0099 | -0.0149 | -0.0033
10 | CC1(C)CCC(CN2CCN(c3ccc(C(=O)NS(=O)(=O)c4ccc(NCC5CCOCC5)c([N+](=O)[O-])c4)c(Oc4cnc5[nH]ccc5c4)c3)CC2)=C(c2ccc(Cl)cc2)C1 [Venetoclax] + C[C@@H]1COCCN1C2=NC(=NC(=C2)C3(CC3)[S@](=N)(=O)C)C4=C5C=CNC5=NC=C4 [AZD6738] (first compound max 1 µM, 7x7, partner max 10 µM) | 0.316 | 0.506 | 0.942 | 0.597 | 0.479 | 0.454 | 0.819 | 0.47 | 0.599 | 0.995 | 0.892 | 0.91 | 0.58 | 0.652 | 0.366 | -0.0548 | -0.0398 | -0.0311 | -0.0185 | 0.0024
11 | NC1(C(=O)N[C@@H](CCO)c2ccc(Cl)cc2)CCN(c2ncnc3[nH]ccc23)CC1 [Capivasertib] + Cn1cnc2c(F)c(Nc3ccc(Br)cc3Cl)c(C(=O)NOCCO)cc21 [Selumetinib] (first compound max 10 µM, 7x7, partner max 10 µM) | 0.8 | 0.2 | 0.369 | 0.464 | 0.498 | 0.351 | 0.908 | 0.712 | 0.625 | 0.874 | 0.737 | 0.785 | 0.767 | 0.177 | 0.47 | 0.0151 | 0.0644 | 0.0005 | -0.0003 | 0.0183
12 | Cc1c2c(nn1C)CSCc1cc(n(C)n1)CSc1cc(c3ccccc3c1)OCCCc1c(C(=O)O)n(C)c3c-2c(Cl)ccc13 [AZD5991] + C1CN(CCC1(C(=O)N[C@@H](CCO)C2=CC=C(C=C2)Cl)N)C3=NC=NC4=C3C=CN4 [Capivasertib] (first compound max 1 µM, 7x7, partner max 3 µM) | 0.988 | 0.351 | 0.349 | 0.227 | 0.689 | 0.237 | 0.99 | 0.16 | 0.706 | 0.756 | 0.801 | 1 | 0.269 | 0.254 | 0.265 | -0.0233 | 0.0187 | -0.0038 | 0.0196 | 0.0218
13 | CC1(C)CCC(CN2CCN(c3ccc(C(=O)NS(=O)(=O)c4ccc(NCC5CCOCC5)c([N+](=O)[O-])c4)c(Oc4cnc5[nH]ccc5c4)c3)CC2)=C(c2ccc(Cl)cc2)C1 [Venetoclax] + CN(C)CCCOc1ccc(-c2ccc3ncc4c(c3c2)n(C2CCOCC2)c(=O)n4C)cn1 [AZD0156] (first compound max 1 µM, 7x7, partner max 1 µM) | 0.245 | 0 | 0.468 | 0.171 | 0.31 | 0.25 | 0.395 | 0.196 | 0.423 | 0.812 | 0.34 | 0.365 | 0.173 | 0.194 | 0.17 | -0.02 | -0.0135 | -0.0214 | 0.0177 | 0.0206
